The source of these data is US20160250213A1, “FORMULATIONS OF AZAINDOLE COMPOUNDS” (priority 2013, published 2016).

Data set [1] deals with Influenza A/Victoria/3/75 (H3N2) virus. It counts as in vivo, BALB/c mice. As to conditions: 10 mg/kg p.o. twice a day for 10 days starting 2 hours prior to virus exposure.
Another data set deals with influenza A. More on the design: species or system mice. As to conditions: mouse, in vivo.
Data set [2] has as its system Influenza A/California/04/2009 (pndH1N1) virus. It counts as in vivo, BALB/c mice. As to conditions: 10 mg/kg p.o. twice a day for 10 days starting 2 hours prior to virus exposure.
A further data set has as its system influenza A virus. It counts as in vivo, mice.
Another data set deals with A/Puerto Rico/8/34. Format: cell-based, influenza A virus.
The conditions of data set [3]: ambient temperature.

Where two headings read alike, the source gives them in different places. Marks after values point to notes of the source that are not given here.

Take `CCOC(=O)C1=C[C@@H](OC(CC)CC)[C@H](NC(C)=O)[C@@H](N)C1` [Oseltamivir, reference compound]: in data set [1], the “MDD ± SD (mean day of death of mice that died on or before day 21)” value is given as 7.0; the “Mean Lung Parameters (Day 6): Score (hemorrhage, 0 to 4)” value was 1.7 ± 1.1; the “Mean Lung Parameters (Day 6): Virus Titer” value stood at 7.0 ± 0.3 Log10 CCID50/g; the “Mean Lung Parameters (Day 6): Weight” value is 218 ± 24 mg. Moreover, the Survivors/Total in data set [1] is 9/10***. Besides, the “Log10 Reduction vs. Vehicle” value in the data set on influenza A was −0.15 Log10. For the same molecule, the “Lung Viral Titer” value with influenza A (10 mg/kg) is listed as 6.05 Log10 TCID50. In data set [2], the “Mean Lung Parameters (Day 6): Score (hemorrhage, 0 to 4)” value stood at 1.0; the “Mean Lung Parameters (Day 6): Virus Titer” value was 7.9 Log10 CCID50/g; the “Mean Lung Parameters (Day 6): Weight” value was determined as 178 mg; the Survivors/Total is listed as 10/10***. The “dosing initiation post infection up to which complete protection is provided” value with influenza A virus (10 mg/kg BID) is listed as at most 24 h. Further, in the data set with influenza A virus (10 mg/kg BID, same experiment (prophylactic)), the “survival” value is given as “survived”. Also, the “survival” value in the data set on influenza A virus (mouse, in vivo) is on record as “survived”. Moreover, in the data set with A/Puerto Rico/8/34, the “C.I. (combination index) values at the 50% effect level” value was 0.58.
With `CC(=O)N[C@H]1[C@H]([C@H](O)[C@H](O)CO)OC(C(=O)O)=C[C@@H]1N=C(N)N` [Zanamivir], in the data set on A/Puerto Rico/8/34, the “C.I. (combination index) values at the 50% effect level” value came to 0.64 and the “Synergy Volume, 95% Confidence” value was 268.
With `O=C(O)[C@H]1C2CCC(CC2)C1Nc1nc(-c2c[nH]c3ncc(F)cc23)ncc1F` (stereo partly drawn) [amorphous compound (1)], the “Resulting Form” value is reported as “Amorphous” in data set [3] (solvent 1,1,2-Trichloroethane); “Amorphous” in data set [3] (solvent 1,2-Dichloroethane); “Amorphous” in data set [3] (solvent 1,2-Dimethoxyethane); “Solvate (1:1)” in data set [3] (solvent 1,4-Dioxane); “Solvate (1:1)” in data set [3] (solvent 1-Butanol); “Solvate(1:1)” in data set [3] (solvent 1-Pentanol). Moreover, the “Resulting Form” value in data set [3] (solvent 1-Propanol) is “No signal”; in data set [3] (solvent 2-Butanol) it was “Solvate(1:1)”; in data set [3] (solvent 2-Ethoxyethanol), “No signal”; in data set [3] (solvent 2-Methoxyethanol) it was “No signal”; in data set [3] (solvent 2-Methy-1-propanol), “Solvate(1:1)”; in data set [3] (solvent 2-Propanol), “Solvate(1:1)”. Further, the “Resulting Form” value is “Solvate” in data set [3] (solvent 3-Methyl-1-butanol); “Solvate” in data set [3] (solvent Acetone); “Amorphous” in data set [3] (solvent Acetonitrile); “Amorphous” in data set [3] (solvent Anisole); “Amorphous” in data set [3] (solvent Butyl acetate); “Amorphous” in data set [3] (solvent Chlorobenzene). Besides, the “Resulting Form” value in data set [3] (solvent Chloroform) is “Amorphous”; in data set [3] (solvent Cumene), “Amorphous”; in data set [3] (solvent Cyclohexane) it was “Amorphous”; in data set [3] (solvent Dichloromethane) it was “Amorphous”; in data set [3] (solvent Dimethylsulfoxide), “No signal”; in data set [3] (solvent Ethyl acetate), “Amorphous”. Moreover, the “Resulting Form” value in data set [3] (solvent Ethyl ether) is given as “Amorphous”; in data set [3] (solvent Ethyl formate) it was “Solvate(1:1)”; in data set [3] (solvent Ethylene glycol), “Solvate”; in data set [3] (solvent Formamide), “Amorphous”; in data set [3] (solvent Formic acid), “No signal”; in data set [3] (solvent Heptane) it was “Solvate”. For the same molecule, the “Resulting Form” value in data set [3] (solvent Hexane) was “Amorphous”; in data set [3] (solvent Isobutyl acetate) it was “Amorphous”; in data set [3] (solvent Isopropyl acetate), “Amorphous”; in data set [3] (solvent Methanol), “Solvate”; in data set [3] (solvent Methyl acetate), “Solvate”; in data set [3] (solvent Methyl tetrahydrofuran) it was “Solvate(1:1)”. For the same molecule, the “Resulting Form” value is “Amorphous” in data set [3] (solvent Methylbutyl ketone); “Amorphous” in data set [3] (solvent Methylcyclohexane); “Solvate(1:1)” in data set [3] (solvent Methylethyl ketone); “Solvate” in data set [3] (solvent N,N-Dimethylacetamide); “No signal” in data set [3] (solvent N,N-Dimethylformamide); “No signal” in data set [3] (solvent N-Methylpyrrolidinone). Further, the “Resulting Form” value is on record as “Amorphous” in data set [3] (solvent Nitromethane); “Amorphous” in data set [3] (solvent Pentane); “Amorphous” in data set [3] (solvent Propyl acetate); “Solvate(1:1)” in data set [3] (solvent Tetrahydrofuran); “Amorphous” in data set [3] (solvent Tetralin); “Amorphous” in data set [3] (solvent Toluene). Besides, the “Resulting Form” value in data set [3] (solvent Water) is “Amorphous”; in data set [3] (solvent acetic acid), “Solvate”; in data set [3] (solvent t-Butylmethylether) it was “Amorphous”; in data set [3] (solvent xylene), “Amorphous”.
With `NC(=O)c1nc(F)c[nH]c1=O` [favipiravir], in the data set with A/Puerto Rico/8/34, the “C.I. (combination index) values at the 50% effect level” value was found to be 0.89 and the “Synergy Volume, 95% Confidence” value is reported as 317.
As to `CCC(CC)O[C@@H]1C=C(C(=O)O)C[C@H](N)[C@H]1NC(C)=O` [oseltamivir carboxylate], the “Synergy Volume, 95% Confidence” value in the data set on A/Puerto Rico/8/34 (Bliss Independence (Macsynergy), in combination with Compound (1)) was determined as 312.
